Assay results: patent US20110076693A1, “METHOD FOR DETECTION AND QUANTIFICATION OF PLK1 EXPRESSION AND ACTIVITY” (The U.S.A. as Represented by the Secretary , Dept.of Health …, priority 2008, published 2011)

Experiments:
PBD of Plk1 = biological target: T1, PBD of Plk1 (Homo sapiens, UniProt P53350); assay: Binding of Plk1-phosphorylated 32P-PBIPtide-A6 to bead-bound GST-PBD; conditions: GST-PBD vs GST-PBD (H538A K540M), TBSN buffer, 1 hour at 4° C.
T1 construct: made in house

Plk1 [1] = assay: Direct Plk1 kinase assay with total HeLa lysates and [γ-32P]ATP using GST-PBIPtides as substrate; assay type: biochemical, human; conditions: shPlk1 HeLa lysates, compared with PBIPtide4
Method: FIGS. 1A-1B are digital images of Western blots, a schematic representation of a kinase assay and a set of bar graphs showing that a peptide that contains the T78 motif of PBIP1 (a PBIPtide) can be used to quantitate the kinase activity of Plk1 in vitro. […] FIG. 1A Left, mitotic HeLa lysates were incubated with either bead-immobilized control glutathione S-transferase (GST) or GST-PBIPtide4 in TBSN buffer containing phosphatase inhibitors. Beads were precipitated and washed and then subjected to in vitro kinase assays in the presence of [γ-^32P]-ATP. Samples were separated by sodium dodecyl sulfate polyacrylamide gel electrophoresis (SDS/PAGE), transferred to polyvinylidene fluoride (PVDF), and then exposed (Autorad). The membrane was immunoblotted with the indicated antibodies and then stained with Coomassie (CBB). Note that the anti-p-T78 signal (α-p-T78 panel) is relatively weak because the incubation was carried out in TBSN at 4° C. FIG. 1A Right is schematic diagram illustrating the experimental procedures described in FIG. 1A Left. The ellipsoids depict bead-associated GST-PBIPtide containing the T78 motif. […] The GST-PBIPtide bands were excised, and incorporated 32P was quantified. […]
It was then determined whether the Plk1 activity present in total cellular lysates could be directly measured by incubating the lysates with GST-PBIPtide. […]

Plk1 [2] = assay: PBIPtide-based Plk1 ELISA with shLuc/shPlk1 HeLa lysates; conditions: compared with PBIPtide4
Method: The ELISA wells were coated with soluble GST-PBIPtide containing the T78 motif and then reacted with total cellular lysates. The Plk1 activity in the total lysates generates the p-T78 epitope to which Plk1 itself binds. After reaction, Plk1 activity is quantified by incubating the ELISA wells with either anti-p-T78 antibody (to detect the p-T78 epitope generated) or anti-Plk1 antibody (to detect Plk1 bound to the p-T78 epitope), followed by HRP-conjugated secondary antibody (the grey antibody with a black dot). The asterisks indicate 3.3′, 5.5′-tetramethylbenzidine (TMB) substrate and its reaction product, generated by HRP. […] HeLa cells were silenced for control luciferase (shLuc) or Plk1 (shPlk1) and then treated with nocodazole for 16 hours to arrest the cells in prometaphase (a condition that maximizes Plk1 activity). […] Buffer indicates no-lysate control. The same lysates were subjected to immunoblotting analysis to determine the level of Plk1 in the lysates. […] GST-PBIPtide-A6-coated ELISA wells were incubated with the indicated amount of recombinant Plk1 purified from Sf9 cells. The level of the p-T78 epitope generated and the amount of Plk1 bound to the p-T78 GST-PBIPtide-A6 were quantified by using anti-p-T78 and anti-Plk1 antibodies, respectively. […] Total lysates were prepared from these cells and applied to the GST-PBIPtide-A6-coated wells. Buffer indicates no-lysate control. […]

T1 sequence (P53350 326-603 limits assumed): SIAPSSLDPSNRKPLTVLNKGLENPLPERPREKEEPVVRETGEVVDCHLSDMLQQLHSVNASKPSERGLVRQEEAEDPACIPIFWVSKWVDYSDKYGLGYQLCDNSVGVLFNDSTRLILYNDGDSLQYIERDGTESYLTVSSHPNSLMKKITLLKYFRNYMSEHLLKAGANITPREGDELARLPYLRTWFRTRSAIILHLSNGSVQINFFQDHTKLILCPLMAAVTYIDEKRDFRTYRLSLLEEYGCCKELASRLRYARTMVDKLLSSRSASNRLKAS

## GST-PBIPtide-A6: N-terminal GST fusion of SEQ ID NO: 8; 6 repeats of the PBIPtide (Y68F T70A Y81F) triple mutant joined by GGPGG linkers
PBD of Plk1
  PBD binding after Plk1-dependent phosphorylation of the T78 motif: sufficient for the PBD binding
Plk1 [1]
  Level of 32P incorporation after Plk1 depletion: mildly, but reproducibly, lower level
Plk1 [2]
  Sensitivity to Plk1 activity: mildly, but reproducibly, increased sensitivity
